The values below are quoted from earlier work in PMC10224173 (Viruses, 2023).

The data set concerns the target ZIKV NS2B-NS3 protease (Zika virus, UniProt A0A024B7W1). The conditions noted are these: Table 2; active site inhibitor; ref [43].

Sequence of ZIKV NS2B-NS3 protease (A0A024B7W1 1503-1680): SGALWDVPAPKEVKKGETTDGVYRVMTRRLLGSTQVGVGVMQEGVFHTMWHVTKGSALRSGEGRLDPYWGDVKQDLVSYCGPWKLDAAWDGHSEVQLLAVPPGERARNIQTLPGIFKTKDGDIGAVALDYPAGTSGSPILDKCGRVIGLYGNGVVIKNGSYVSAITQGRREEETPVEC
Sequence of ZIKV NS2B-NS3 protease (A0A024B7W1 1419-1472): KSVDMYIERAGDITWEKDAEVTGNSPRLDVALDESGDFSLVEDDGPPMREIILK

A word on the IC50: it is the concentration that gives 50% inhibition. Take `CC(C)C[C@H]1C(=O)N2CCC[C@H]2[C@]2(O)O[C@](NC(=O)[C@@H]3C=C4c5cccc6[nH]c(Br)c(c56)C[C@H]4N(C)C3)(C(C)C)C(=O)N12` [Bromocriptine]: the IC50 was 21.6 µM.
